US20190211099A1, “METHODS AND COMPOSITIONS FOR TREATING CANCER WITH SIGLEC-9 ACTIVITY MODULATORS” (KING'S COLLEGE LONDON, priority 2016, published 2019)

What was measured:
Format in all cases: cell-based, human
CD8+ T cells = assay: Co-culture of MUC1-ST educated M-CSF macrophages with CD3/CD28 stimulated autologous T cells; conditions: MUC1-ST educated M-CSF macrophages
Description: In addition, primary monocytes were induced to differentiate to macrophages in the presence of MUC1-ST and then co-cultured for 48 hours with CD3/CD28 stimulated autologous CD8+ or CD4+ T cells. T cell proliferation and CD69/CD25 cell surface expression were measured using flow cytometry.

monocytes = assay: Calcium flux in monocytes (Fluo-4 intracellular calcium reporter); conditions: monocytes or macrophages, 100 μg/10^6 cells
Description: In addition, in a murine tumor model Siglec-E (the mouse Siglec with the most similarity to human Siglec-9), was associated with a decrease in alternatively activated macrophages (Laubli et al. (2014) PROC. NATL. ACAD. SCI. USA). As a result, the triggering of a calcium flux when MUC1-ST engaged Siglec-9 was investigated. Briefly, monocytes pre-labeled with an intracellular calcium reporter (Fluo-4; Life Technologies) were treated with MUC1-ST, MUC1-T (100 μg/10^6 cells) or a T47D monolayer, for 4 hours at 4° C. The cells were brought up to 37° C. and calcium flux was measured at 530 nm using a plate reader at the indicated time points. Where not indicated, the time point was 60 seconds. When monocytes or macrophages were treated with MUC1-ST, a Siglec-9 dependent increase in calcium influx was observed (FIGS. 13E-F). A calcium flux was also observed when monocytes and T47D cells came into contact. This effect could also be inhibited by the anti-Siglec-9 antibody.

monocytes from PBMCs = assay: MUC1-ST mediated TAM formation in monocytes from PBMCs, 7 day serum-free culture
Description: To further explore the role of MUC1-ST in inducing a TAM-like phenotype, monocytes from PBMCs were plated in serum-free medium, incubated with MUC1-ST or PBS, and cultured for 7 days.
Intracellular calcium flux can lead to activation of the MEK/ERK pathway (Christo et al. (2015) IMMUNOL. AND CELL BIOLOGY 93: 694-704). […] Furthermore, treatment with the MEK inhibitor PD98059 at 10 μM inhibited MUC1-ST mediated TAM formation in monocytes (FIGS. 12B, 12D-12E).

[1] = tested on: monocyte derived macrophages; assay: Factors secreted by monocyte derived macrophages treated with MUC1-ST (ELISA)
Description: ELISAs for IL-6, IL-12p70, TGF-β1, PAI-1, M-CSF, EGF, SHP2, phospho-SHP2 (Biotechne) were all carried out as per manufacturer's instructions.
Secreted proteins from monocyte derived macrophages were assayed by ELISA as described in Example 2. […] All of these factors are associated with tumor progression (Duffy et al. (2014) BREAST CANCER RES. 16: 428; Jensen et al. (2002) CLIN. CANCER RES. 9:4423-4434). […] It has been discovered that MUC1-ST/Siglec-9 ‘educated’ monocytes and macrophages have a unique secretome.

[2] = tested on: M-CSF macrophages differentiated with LPS and IFNγ; assay: Differentiation of monocytes into M(LPS+IFNγ) macrophages: CD86 and IL-12; conditions: MUC1-ST added at day 1 of the culture
Description: Both the cell phenotype staining and neutralization studies described in the Examples were performed using the following antibodies (all anti-human): Siglec-9 (Biotechne; 191240), Siglec-9 FITC (Biotechne; 191240), Siglec-3 (Biotechne; 6C5/2), Siglec-7 (Biotechne; AF1138), Siglec-3 FITC (BD; P67.6), Siglec-7 PE (Biolegend; 6-434), Siglec-10 PE (Biolegend; 5G6), Siglec-1 (abcam; 7D2), HLA-DR FITC (Beckman Coulter; IM0463U), CD16 FITC (Biolegend; B73.1), CD14 FITC (BD 555397), CD69 PE (Beckman Coulter; IM1943), CD25 FITC (ABX228FITC), CD86 PE (Beckman Coulter; IM2729U), CD40 FITC (BD 555588), CD83 PE (Beckman Coulter; IM2218), CD163 PE (Biolegend; GHI/61), CXCR1 FITC (BD Pharmongen; 551126), CD45 PC5 (Beckman Coulter; IM2653U), CD206 PE (ebioscience; 19.2), PD-L1 PE (Biolegend; 29E.2A3), CD36 (Santa Cruz; H-300), TGFbetaRII (Bio-Techne; AF-241), IL-6Rα (Tocilizumab; Roche. A generous gift from Dr. Valerie Corrigall). […] At least 1×10^4 events were evaluated using either Epics XL, (Beckman Coulter) or FACSCalibur (BD Biosciences) flow cytometers. […]
Given that IL-6 and NO are known differentiation modulators (Oosterhoff et al. (2012) ONCOIMMUNOLOGY 1: 649-658; Bogdan (2015) TREND IMMUNOL. 36: 161-178) the effects of MUC1-ST on the differentiation of monocytes into macrophages was assessed. […]

“NeuAcα2,3Galβ1-3GalNAc linked via a Ser/Thr of MUC1 [MUC1-ST]” was tested, and the “activation of CD8+ T cells (expression of CD25 and CD69)” value (CD8+ T cells) was “lower level of activation”, the “proliferation of CD8+ T cells” value (CD8+ T cells; 48 hours co-culture) was “significantly inhibited” and the calcium influx (monocytes) was “increase”. For the same substance, the “expression of ECM component collagen type I” value (monocytes from PBMCs) was “increased expression”, the “percentage of live macrophages in the culture” value (monocytes from PBMCs; 7 days, serum-free medium) was “increased” and the “expression of TAM markers such as CD206 and PD-L1” value (monocytes from PBMCs; flow cytometry) was “increased expression”. The “secretion of M-CSF, PAI-1, chitinase 3-like-1 and EGF” value [1] was “increased secretion” and the “levels of CD86 and IL-12” value [2] was “lower levels”.
